Assay results taken from patent US12274756B2, “Methods of treating and diagnosing epilepsy” (YALE UNIVERSITY, priority 2019, dated 2025).

Test system: Rheb^CA neurons
Assay: Whole cell patch clamp recording in acute slices, Rheb^CA (FCM) neurons
Assay type: cell-based, mice
Procedure: Each DNA plasmid was diluted in sterile PBS (pH 7.4) to a final concentration of 1.5-3 μg/μl (specific concentrations below). About 1 μl of DNA solution containing 0.1% fast green was injected into the lateral ventricle of E15.5±0.5 fetuses with a glass pipette. After injection, PBS soaked tweezer-type electrodes (model 520, BTX) were positioned on heads of the fetuses across the uterine wall and 6 square-pulses (42V, 50 ms duration, 950 ms intervals) were applied using a pulse generator (ECM830, BTX), Mice were prescreened for successful electroporation on a fluorescence enabled stereo microscope (SZX16, Olympus) prior to recruitment for EEG monitoring. To generate epilepsy-associated FCM, a DNA solution composed of pCAG-RhebS16H (Rheb^CA, 2 μg/μl) and pCAG-tdTomato (1 μg/μl) was injected in half of all fetuses while pCAG-GFP (3 μg/μl) containing solution was injected in the remaining littermates as controls. To silence FCM neurons, pCAG-Kir2.1-T2A-tdTomato (2 μg/μl)+pCAG-Rheb^CA (2 μg/μl) was injected in half of the fetuses while the remaining half received pCAG-Rheb^CA (2 μg/μl)+pCAG-GFP (2 μg/μl) as controls.
1-5-week-old mice were used for acute slices. Tissue was dissected and sliced in ice cold artificial cerebral spinal fluid (aCSF)oxygenated with 95% O2/5% CO2. The aCSF contained (all in mM): 124 NaCl, 3 KCl, 1.25 NaH2PO4, 1 MgSO4, 26 NaHCO3, 10 Dextrose, 2 CaCl2, 0.4 ascorbate, 4 Na-Lactate, 2 Na-Pyruvate (290±5 mOsm/kg, pH 7.2). Coronal sections (350 μm) were prepared using a vibratome (Vibratome 1000). Sections were incubated in aCSF at 32° C. for 45 minutes before returning to room temperature (25° C.) where they were kept for 8 to 10 hours during experimentation. Fluorescent neurons in the mPFC were visualized using epifluorescence on an Olympus BX51WI microscope with a 40× water immersion objective (Olympus, LUMPlanFL/IR). Whole-cell recordings were performed at 28° C. using pulled glass pipettes ([…]) filled with internal solution (in mM: 110 K-gluconate, 4 KCL, 10 HEPES, 10 di-tris-phosphocreatine, 4 Mg-ATP, 0.3 Na-GTP). Recordings were acquired with an amplifier (Axopatch 200B, Molecular Devices), The resting membrane potential was recorded within the first 10 seconds after achieving whole, cell configuration in current-clamp mode, while the cell is at rest without any holding current. The membrane conductance was calculated using the average membrane potential change from ten hyperpolarizing current injections of −500 pA in current-clamp mode when the cell is at rest. The action potential half width was calculated at half of the peak amplitude of a single action potential induced by current injection. The action potential firing threshold was defined as the membrane potential at which the first derivative of an action potential in current-clamp mode achieves 10% of its peak velocity (dV/dt). The action potential input-output curve was generated by injecting positive current in current-clamp mode from 0 to 2 nA at 100 pA increments for 500 msec.

[1] = Rheb^CA neurons with zatebradine

SMILES	h current amplitude difference (ΔI) (500 ms-long voltage step, Rheb^CA vs Rheb^CA+zatebradine)	residual inward current at −90 mV [1]	resting membrane potential (RMP) [1]	hyperpolarization-induced voltage sag response (Rheb^CA neurons, −500 pA current step, zatebradine 40 μM)	HCN currents in Rheb^CA neurons before seizure onset (slices from P8-P12 mice)	hyperpolarization-activated inward currents (voltage-clamp steps from −40 to −130 mV, in the presence of zatebradine, not fully blocked)	neurons generating repetitive action potentials (Rheb^CA neurons, forskolin bath-application)
COc1ccc(CCN(C)CCCN2CCc3cc(OC)c(OC)cc3CC2=O)cc1OC [zatebradine]	significantly reduced	no residual inward current	shifted RMP of cells to hyperpolarized values similar to those of control neurons	eliminated the sag response	zatebradine-sensitive	significantly reduced	
C=C[C@@]1(C)CC(=O)[C@]2(O)[C@@]3(C)[C@@H](O)CCC(C)(C)[C@@H]3[C@H](O)[C@H](OC(C)=O)[C@@]2(C)O1 [forskolin]							4/9
